This is an account of results in PMC11476342 (Cancers, 2024).

“And” between values parts separate entries of the source, which are not always exact repeats. Equal entries are not always repeated. Where two headings read alike, the source gives them in different places.

Data set [1] has as its system J82 cisR. The data set is described as follows: MTT cell viability assay. Format: cell-based, human. The procedure: (§1) The cell viability for determination of IC50 values and synergism studies was analyzed by MTT assay as previously described. […] For preincubation experiments, 1600 c/w (cells per well) for J82 and 1200 c/w for J82 cisR were used. After the incubation time, 25 µL MTT (3-(4,5-dimethylthiazol-2-yl)-2,5-diphenyltetrazolium bromide, Serva, Heidelberg, Germany) solution (5 mg/mL in phosphate-buffered saline) was added. The formazan was dissolved in 75 µL DMSO, and the absorption was measured at 540 nm and 690 nm with a microplate reader (ThermoFisher Multiskan, Thermo Scientific, Wesel, Germany).
Background: Tetrazolium dyes change colour on reduction, which living cells bring about.

The subject of data set [2] is J82. The data set is described as follows: MTT cell viability assay. Type of data set: cell-based, human. The procedure:
as §1

Data set [3] concerns T24 LTT. The data set is described as follows: MTT cell viability assay. Format: cell-based, human. As for the experimental part:
as §1

Data set [4] relates to T24. Kind of data set: MTT cell viability assay. Type of data set: cell-based, human. As for the experimental part: as §1
For data set [5], the system named is HBLAK. The data set is described as follows: MTT cell viability assay, non-cancer cell line. Format: cell-based, human. The conditions noted are these: for reduction of cell viability: entinostat and/or JQ1 in the absence of cisplatin (Figure 15a). The procedure: as §1
Data set [6] relates to HEK293. The data set is described as follows: MTT cell viability assay, non-cancer cell line. Format: cell-based, human. The conditions noted are these: for reduction of cell viability: entinostat and/or JQ1 in the absence of cisplatin (Figure 15b,c). The procedure:
as §1

For data set [7], the system named is J82. The data set is described as follows: RT-qPCR gene expression. Format: cell-based, human. The conditions noted are these: 48 h; ENT 0.316 µM; JQ1 1 µM; ENT + JQ1 0.316 + 1 µM. Background: In qPCR the cycle at which signal appears reflects the starting amount.
Excerpt: (§2) RNA was isolated using the RNeasy Mini Kit (Qiagen, Hilden, Germany). Subsequently, the RNA was transcribed into cDNA using the High-Capacity cDNA Reverse Transcription Kit (Thermo Scientific, Wesel, Germany). For an RT-PCR, GoTaq qPCR Master Mix (Promega, Fitchburg, WI, USA) and a CFX96 Real-Time System (BIO-RAD, Hercules, CA, USA) were used. The relative changes in gene expression were normalized to the control genes GUSB (beta-glucuronidase), TBP (TATA binding protein), and HPRT1 (hypoxanthine–guanine phosphoribosyltransferase) by Vandesompele method [54].
The test system of data set [8] is J82 cisR. Kind of data set: RT-qPCR gene expression. The conditions noted are these: 48 h; ENT 0.316 µM; JQ1 0.1 µM; ENT + JQ1 0.316 + 0.1 µM. Format: cell-based, human.
Excerpt: as §2
For data set [9] the following is noted: cited from earlier work; for bioavailability: OTX015: oral, in contrast to JQ1; for half-life: in vivo, OTX015 in contrast to JQ1.
Details of data set [10]: method as in PMID 33723398, PMID 29733771, PMID 27063977, PMID 27063978, PMID 26341814. The conditions noted are these: patients; cited from earlier work.
Setting [11] is: 48 h preincubation with the other inhibitor (ENT after 0.1 µM JQ1; JQ1 after 0.316 µM ENT), then another 72 h.
Where [12] appears, read: 72 h co-incubation with the other epigenetic inhibitor: ENT with 0.1 µM JQ1, JQ1 with 0.316 µM ENT.
Setting [13] is: Homo sapiens, 72 h, MTT, 72 h, compound alone, read-out: IC50 ± SD.
Where [14] appears, read: Homo sapiens, control of the 48 h preincubation scheme, compound 72 h, read-out: IC50 ± SD.
Setting [15] is: MTT, 72 h, compound alone, read-out: IC50 ± SD.
[16] abbreviates: 48 h preincubation with the other inhibitor (ENT after 1 µM JQ1; JQ1 after 0.316 µM ENT), then another 72 h.
Setting [17] is: 72 h co-incubation with the other epigenetic inhibitor: ENT with 1 µM JQ1, JQ1 with 0.316 µM ENT.
Setting [18] is: Homo sapiens, J82, 72 h, MTT, 72 h, compound alone, read-out: IC50 ± SD.
The mark [19] stands for this setting: Homo sapiens, J82, control of the 48 h preincubation scheme, compound 72 h, read-out: IC50 ± SD.
Setting [20] is: Homo sapiens, MTT, 72 h, compound alone, read-out: IC50 ± SD.
The mark [21] stands for this setting: Homo sapiens, T-24, MTT, 72 h, compound alone, read-out: IC50 ± SD.
Where [22] appears, read: Homo sapiens, HEK293, MTT, 72 h, compound alone, read-out: IC50 ± SD.
The mark [23] stands for this setting: 72 h co-incubation with 0.316 µM ENT.
Where [24] appears, read: MTT, 72 h, compound alone, listed as cisplatin, read-out: IC50 ± SD.
The mark [25] stands for this setting: read-out: Cisplatin IC50 ± SD, control: untreated 48 h, then cisplatin 72 h.
Where [26] appears, read: read-out: Cisplatin IC50 ± SD, control: untreated 48 h, then cisplatin 72 h, listed as cisplatin.
Setting [27] is: read-out: Cisplatin IC50 ± SD, control, then cisplatin 72 h.

With `Nc1ccccc1NC(=O)c1ccc(CNC(=O)OCc2cccnc2)cc1` [Entinostat, entinostat], the SF in data set [1] (setting [11]) is on record as 1.45; in data set [1] (setting [12]), 1.97; in [2] (setting [16]), 1.44; in data set [2] (setting [17]) it was 1.68. Moreover, the IC50 was 10.4 ± 0.94 µM in data set [1] (setting [13]); 9.38 ± 0.89 µM in data set [1] (setting [14]); 7.6 ± 0.59 µM in data set [1] (setting [15]); 12.3 ± 1.08 µM in data set [2] (setting [18]); 9.59 ± 0.81 µM in data set [2] (setting [19]); 10.4 ± 0.89 µM in [2] (setting [15]). The half-inhibitory concentration (IC50) in data set [3] (setting [20]) is 1.38 ± 0.1 µM; in data set [4] (setting [21]), 5.68 ± 0.51 µM; in data set [5] (setting [20]), 1450 ± 180 nM; in data set [6] (setting [22]), 4.47 ± 0.77 µM. Besides, the results for the “reduction of cell viability” value in data set [5] and in data set [6] were 60–65% and “up to 20%”, respectively. Besides, the results for the “Bim gene expression, decadic logarithm of normalized expression” value in data set [7] and in [8] were -0.015 and -0.110, respectively. In addition, the “FOXO1 gene expression, decadic logarithm of normalized expression” value is -0.054 in data set [7] and 0.087 in [8]. The entries for the “FOXO3a gene expression, decadic logarithm of normalized expression” value in data set [7] and in [8] were -0.125 and -0.030, respectively. Moreover, the “p53 gene expression, decadic logarithm of normalized expression” value is -0.125 in [7] and -0.202 in data set [8]. In addition, the “survivin gene expression, decadic logarithm of normalized expression” value was -0.149 in data set [7] and -0.100 in data set [8]. Moreover, the “p21 gene expression, decadic logarithm of normalized expression” value in [8] was 0.049.

As to `N.N.[Cl][Pt][Cl]` [Cisplatin, cisplatin], the SF in data set [1] (72 h co-incubation with 0.1 µM JQ1) was determined as 0.98; in [1] (setting [23]), 1.60; in data set [1] (72 h co-incubation with 0.316 µM ENT + 0.1 µM JQ1), 1.56; in data set [2] (setting [23]) it was 1.74; in data set [2] (72 h co-incubation with 0.316 µM ENT + 1 µM JQ1) it was 3.05; in [2] (72 h co-incubation with 1 µM JQ1) it was 1.90. Moreover, the SF was 1.71 in data set [3] (setting [23]); 1.55 in data set [3] (72 h co-incubation with 0.316 µM ENT + 0.075 µM JQ1); 1.88 in [4] (72 h co-incubation with 0.3 µM JQ1); 1.02 in [4] (setting [23]); 1.54 in data set [4] (72 h co-incubation with 0.316 µM ENT + 0.3 µM JQ1). Moreover, the cisplatin-resistance factor in data set [1] (J82 cisR vs J82) was 3.8; in [3] (T24 LTT vs T24), 24. For the same compound, the IC50 in data set [1] (setting [24]) is 6.17 ± 0.23 µM; in [1] (setting [15]), 7.16 ± 0.24 µM; in data set [1] (setting [25]) it was 8.49 µM and 7.8 µM; in data set [1] (setting [26]) it was 7.64 ± 0.38 µM; in data set [2] (setting [24]), 2.49 ± 0.12 µM; in data set [2] (setting [15]), 1.87 ± 0.06 µM. The IC50 was 2.16 µM and 3.02 µM in data set [2] (setting [25]); 2.98 ± 0.21 µM in [2] (setting [26]); 65.3 ± 4.17 µM in [3] (setting [24]); 72.2 ± 3.57 µM in data set [3] (setting [15]); 75 ± 2.85 µM in data set [3] (setting [25]); 58.7 ± 2.6 µM in data set [3] (setting [26]). The IC50 in data set [4] (setting [24]) was found to be 1.97 ± 0.06 µM; in data set [4] (setting [15]), 2.99 ± 0.12 µM; in [4] (setting [25]), 4.15 ± 0.12 µM; in data set [4] (setting [26]), 3.23 ± 0.1 µM; in [5] (setting [15]), 1710 ± 90 nM; in [5] (setting [27]), 3380 ± 180 nM. Besides, the IC50 in data set [6] (setting [15]) worked out at 3.36 ± 0.09 µM; in data set [6] (setting [27]), 6.26 ± 0.21 µM.

Consider `Cc1sc2c(c1C)C(c1ccc(Cl)cc1)=NC(CC(=O)NCCCN1CCN(C)CC1)c1nnc(C)n1-2` (centres unmarked) [JQ35], for which the IC50 in [1] (setting [13]) was found to be 1.49 ± 0.34 µM; in data set [2] (setting [18]), 69.5 ± 7.88 µM. The “fold-increased IC50 value compared to JQ1” value in data set [2] (J82, MTT, 72 h) was found to be 3.7 fold.

As for `Cc1sc2c(c1C)C(c1ccc(Cl)cc1)=NC(CC(=O)OC(C)(C)C)c1nnc(C)n1-2` (centres unmarked) [JQ1], the SF in data set [1] (setting [11]) came out at 1.21; in [1] (setting [12]), 1.71; in data set [2] (setting [16]), 1.28; in data set [2] (setting [17]), 0.84. Also, the IC50 in data set [1] (setting [13]) turned out to be 2.64 ± 0.52 µM; in data set [1] (setting [14]), 2.41 ± 0.51 µM; in data set [1] (setting [15]), 2.22 ± 0.41 µM; in [2] (setting [18]) it was 21.5 ± 4.05 µM; in data set [2] (setting [19]), 21.6 ± 4.99 µM; in [2] (setting [15]), 18.8 ± 1.55 µM. Besides, the IC50 in [3] (setting [20]) was found to be 0.6 ± 0.08 µM; in data set [4] (setting [21]), 2.29 ± 0.42 µM; in data set [5] (Homo sapiens, 72 h, read-out: IC50 ± SD) it was 2370 ± 410 nM; in data set [6] (setting [22]), 1.41 ± 0.26 µM. For the same compound, in data set [1] (MTT, 72 h), the “fold lower sensitivity of J82 than J82 cisR” value is listed as 8.4 fold. Moreover, the “fold lower IC50 in T24 LTT than T24” value in data set [3] (MTT, 72 h) is recorded as 4 fold. Besides, the “reduction of cell viability” value in data set [5] is recorded as 60–65%; in [6] it was “up to 20%”. For the same compound, the “Bim gene expression, decadic logarithm of normalized expression” value is recorded as 0.283 in [7] and 0.534 in data set [8]. For the same compound, the “FOXO1 gene expression, decadic logarithm of normalized expression” value in [7] is listed as 0.260; in data set [8], 0.410. Besides, the “FOXO3a gene expression, decadic logarithm of normalized expression” value in data set [7] is 0.128; in [8] it was 0.438. The “p21 gene expression, decadic logarithm of normalized expression” value stood at 0.654 in data set [7] and 0.581 in data set [8]. The entries for the “p53 gene expression, decadic logarithm of normalized expression” value in data set [7] and in [8] were -0.097 and 0.347, respectively. The figures for the “survivin gene expression, decadic logarithm of normalized expression” value in data set [7] and in [8] were -0.002 and 0.435, respectively. Further, the bioavailability entry in data set [9] was “limited”. Further, the half-life result in data set [9] is “very short”.

For the compound `Cc1sc2c(c1C)C(c1ccc(Cl)cc1)=N[C@@H](CC(=O)Nc1ccc(O)cc1)c1nnc(C)n1-2` [OTX015], the IC50 in data set [1] (setting [13]) came to 1.04 ± 0.13 µM; in data set [2] (setting [18]), 18.9 ± 2.82 µM; in [6] (setting [22]), 1.98 ± 0.42 µM. Further, the dose-limiting toxicities entry in data set [10] is “anemia, thrombocytopenia, fatigue, and hyperbilirubinemia”. In addition, in [9], the bioavailability result is listed as “better”. For the same compound, in data set [9], the half-life result was “extended”.

The term IC50 denotes the midpoint of a concentration-inhibition curve.
